How the values were obtained:
[1] = In vitro skin S9 metabolic stability assay (human); format: in vitro ADME; conditions: human skin S9 sub-fraction, pH 7.4, 1.0 mg/mL protein, 1 mM NADPH, read-out: Half-Life; for half-life at 0.2 μM: Human skin S9, 0.2 μM; for half-life at 2 μM: Human skin S9, 2 μM
Protocol: (§1) Assay 6: In Vitro Skin S9 Metabolic Stability Assay
(§2) The objective of this assay was to assess the metabolic stability of compounds in human and mouse skin S9 sub-fraction. Human and mouse skin S9 sub-fractions obtained from Bioreclamation-IVT (Baltimore, Md.) were thawed on ice and diluted into 0.1M potassium phosphate buffer pH 7.4 to yield final incubation protein concentrations of 1.0 mg/mL. Test compounds (10 mM) were diluted into phosphate buffer to yield final incubation concentrations of 0.2 μM and 2.0 μM. Incubations were conducted at 37° C. temperature following addition of 1 mM NADPH and test aliquots were taken at time points 0, 5, 10, 20, 30 and 45 minutes. Each aliquot was crashed into water with 3% formic acid and 1 μM internal standard. The resulting samples were injected onto an LC-MS/MS system for analysis.
(§3) For each incubation, the peak area of the analytes in each t0 aliquot was set to 100% and the peak areas from subsequent time point aliquots were converted to percentage of parent compound remaining relative to t0. The percentage of parent compound remaining at each time point was converted to natural log scale and plotted versus time in minutes to determine a disappearance half-life.

[2] = In vitro skin S9 metabolic stability assay (mouse); format: in vitro ADME; conditions: mouse skin S9 sub-fraction, pH 7.4, 1.0 mg/mL protein, 1 mM NADPH, read-out: Half-Life; for half-life at 0.2 μM: Mouse skin S9, 0.2 μM; for half-life at 2 μM: Mouse skin S9, 2 μM
Protocol: as §1, §2, §3

Compound | half-life at 0.2 μM [1] [min] | half-life at 2 μM [1] [min] | half-life at 0.2 μM [2] [min] | half-life at 2 μM [2] [min]
CCOc1ccc2ccc(=O)oc2c1 [7-Ethoxycoumarin, reference compound] | > 30 | > 30 | > 30 | > 30
CC(Cc1cccc(C(F)(F)F)c1)NCCOC(=O)c1ccccc1 (centres unmarked) [Benfluorex, reference compound] | < 15 | < 15 | < 15 | < 15
